Results: article PMC6155332, “Antimalarials with Benzothiophene Moieties as Aminoquinoline Partners” (Molecules : A Journal of Synthetic Chemistry and Natural …, 2017)
“And” between values parts separate entries of the source, which are not always exact repeats. Equal values may be shown once.

Columns and labels:
[1] = system: HepG2 (hepatocellular carcinoma) cell line; set-up: method as in PMID 26640981; conditions: previously reported compounds; ref [27]; cited from earlier work
β-hematin formation = test: Inhibition of β-hematin formation (BHIA assay); type: biochemical; conditions: molar equivalent of compound, relative to hemin, that inhibits β-hematin formation by 50%
Source text: [33] The inhibition of β-hematin formation is expressed as the molar equivalent of compound, relative to hemin, that inhibits β-hematin formation by 50% and determined by slightly modified BHIA assay introduced by ParapiniS.BasilicoN.PasiniE.EganT.J.OlliaroP.TaramelliD.MontiD.Standardization of the physicochemical parameters to assess in vitro the beta-hematin inhibitory activity of antimalarial drugsExp. Parasitol.200096249256

[2] = system: P. falciparum W2 (CQ resistant (CQR) strain); set-up: method as in PMID 26640981; conditions: previously reported compounds; ref [27]; cited from earlier work
healthy mice = test: Host toxicity study in healthy mice; type: in vivo; conditions: groups of 5 healthy mice, 160 mg/kg/day × 3 days
Procedure: In a separate host toxicity study, groups of five healthy mice were administered 160 mg/kg/day × 3 days of the investigational compounds and individually monitored for behavior and appearance two times a day for 31 days. No toxicity was defined as survival past day 31 with no overt clinical manifestations of toxicity (changes in behavior and appearance).

P. berghei (ANKA) = test: Modified Thompson test, P. berghei mouse efficacy; type: in vivo, Plasmodium berghei; conditions: for Parasitemia D18: day 18; for Parasitemia D21: day 21; for Parasitemia D25: day 25; for Parasitemia D28: day 28; for Parasitemia D11: day 11; for Mean Survival Time (MST, Days) / Mice Alive on Day 31 / Mice Dead/Day Died: infected mice
Procedure: In a separate host toxicity study, benzothiophene 25 was subjected to in vivo toxicity evaluation. […]
The P. berghei (ANKA) mouse efficacy tests were conducted using a modified version of the Thompson test. Groups of five mice were inoculated intraperitoneally with erythrocytes infected with P. berghei on day 0. Drugs were suspended in 0.5% hydroxyethylcellulose-0.1% Tween 80 and administered orally once a day beginning on day 3 post infection. […] Cure was defined as survival (with no parasitemia) until day 31 post-treatment. Parasitemia was determined by thin-blood Giemsa-stained smears prepared from mice tail blood of each animal on days 0, 3, 6, 10, 13, 17, 20, 24, 27, and 31 (postinfection). The slides were examined under a light microscope.

[3] = system: P. falciparum D6 (CQ susceptible (CQS) strain); set-up: method as in PMID 26640981, PMID 25801154; conditions: previously reported compounds; ref [27],[28]; cited from earlier work
P. berghei DNA = test: qPCR of blood and liver of treated mice for Plasmodium 18S rRNA gene; type: in vivo, Plasmodium berghei; conditions: mice treated 160 mg/kg/day × 3 days, alive past day 31
Source text: Briefly, genomic DNA was extracted from the blood and liver of experimental animals using the DNeasy blood and tissue kit (Qiagen, Hilden, Germany) according to the manufacturer’s instructions. The primers and corresponding TaqMan (Applied BioSystems. Foster City, CA, USA) probe amplify and detect a highly conserved region of the 18S rRNA gene of the genus Plasmodium. Pure P. berghei gDNA samples were used as positive controls.
Genomic DNA was extracted from the blood and liver of experimental animals using the DNeasy blood and tissue kit (Qiagen, Hilden, Germany) according to the manufacturer’s instructions. Briefly, mice alive past day 31 with complete parasite clearance were sacrificed. Next, between 300 and 500 μL of blood was removed after heart puncture and the organs were removed, rinsed with dPBS and homogenized. The liver was homogenized using mechanical disruption and then subjected to proteinase K digestion. Approximately 100 μL of sample was used per each spin column for gDNA extraction.
Briefly, the primers and corresponding TaqMan probe amplify and detect a highly conserved region of the 18S rRNA gene of the genus Plasmodium. The primer and probe sequences were as follows: forward primer Plasmo 1: 5-[…] TCAGA-3; reverse primer Plasmo 2: 5-[…] TCATAA-3; TaqMan probe Plasprobe: 5-FAM-[…] GACTAG-TAMRA-3. […]

[4] = 20 mg/kg/day p.o., days 3–6 postinfection
[5] = 40 mg/kg/day p.o., days 3–6 postinfection
[6] = 80 mg/kg/day p.o., days 3–6 postinfection
[7] = 160 mg/kg/day p.o., days 3–5 postinfection

In the case of Clc1ccc2c(NCCCCNCc3csc4ccccc34)ccnc2c1 [Compound 1], the “SI(HepG2/D6)” value [1] is listed as 282, the “IC50 of inhibition of β-hematin formation” value (β-hematin formation) is listed as 0.34 molar equivalent and the IC50 [2] is listed as 31 nM. For the same compound, the “Mice survived in host toxicity study” value (healthy mice) was 5/5, the “Parasitemia D18” value (P. berghei (ANKA); 20 mg/kg/day p.o. days 3–6) was 6% and the “Parasitemia D21” value (P. berghei (ANKA); 20 mg/kg/day p.o. days 3–6) was 27%. For the same compound, the “Parasitemia D25” value (P. berghei (ANKA); 20 mg/kg/day p.o. days 3–6) was 63%, the “Parasitemia D28” value (P. berghei (ANKA); 20 mg/kg/day p.o. days 3–6) was 66% and the “Cure (4 days therapy)” value (P. berghei (ANKA); 20 mg/kg/day) was “no cure”. The “Parasitemia D7” value (P. berghei (ANKA); 40 mg/kg/day p.o. days 3–6, day 7, positive mice) was 5 mice negative, the “Parasitemia D11” value (P. berghei (ANKA); 40 mg/kg/day p.o. days 3–6) was “no detectable parasitemia and 5 mice negative” and the “Parasitemia D18” value (P. berghei (ANKA); 40 mg/kg/day p.o. days 3–6) was 2.2%. The “Parasitemia D21” value (P. berghei (ANKA); 40 mg/kg/day p.o. days 3–6) was 7.3%, the “Parasitemia D25” value (P. berghei (ANKA); 40 mg/kg/day p.o. days 3–6) was 37% and the “Parasitemia D28” value (P. berghei (ANKA); 40 mg/kg/day p.o. days 3–6) was 53%. For the same compound, the “Parasitemia D7” value (P. berghei (ANKA); 80 mg/kg/day p.o. days 3–6, day 7, positive mice) was 4 mice negative, the “Parasitemia D11” value (P. berghei (ANKA); 80 mg/kg/day p.o. days 3–6) was 4 mice negative and the “Parasitemia D18” value (P. berghei (ANKA); 80 mg/kg/day p.o. days 3–6) was 2.3%. The “Parasitemia D7” value (P. berghei (ANKA); 160 mg/kg/day p.o. days 3–5, day 7) was “cleared all parasites”, the “Parasitemia D31” value (P. berghei (ANKA); 160 mg/kg/day p.o. days 3–5, day 31 (end of study)) was “parasite negative” and the “Parasitemia D7–D31” value (P. berghei (ANKA); 160 mg/kg/day p.o. days 3–5, days 7–31) was 5 mice negative. The “Parasite clearance in dose response test” value (P. berghei (ANKA); 80, 40 and 20 mg/kg/day p.o. for 4 days, starting day 3 postinfection) was “did not clear the parasites”, the “Cure (4 days therapy)” value (P. berghei (ANKA); 80 and 40 mg/kg/day, clearance with recrudescence on D11-14) was “no cure” and the “Mice cured (modified Thompson test, 3 days therapy)” value (P. berghei (ANKA); P. berghei infected mice, 160 mg/kg/day × 3 days p.o.) was 5/5. For the same compound, the “Mean Survival Time (MST, Days)” value (P. berghei (ANKA); [4]) was 16.8 days, the “Mice Alive on Day 31” value (P. berghei (ANKA); [4]) was 0/5 and the “Mice Dead/Day Died” value (P. berghei (ANKA); 20 mg/kg/day p.o., days 3–6 postinfection, 20 mg/kg/day) was 2/11 and 1/14 and 1/18 and 1/30. The “Mean Survival Time (MST, Days)” value (P. berghei (ANKA); [5]) was 19.4 days, the “Mice Alive on Day 31” value (P. berghei (ANKA); [5]) was 0/5 and the “Mice Dead/Day Died” value (P. berghei (ANKA); 40 mg/kg/day p.o., days 3–6 postinfection, 40 mg/kg/day) was 1/30 and 1/15 and 1/16 and 2/18. The “Mean Survival Time (MST, Days)” value (P. berghei (ANKA); [6]) was 18.2 days, the “Mice Alive on Day 31” value (P. berghei (ANKA); [6]) was 0/4 and the “Mice Dead/Day Died” value (P. berghei (ANKA); 80 mg/kg/day p.o., days 3–6 postinfection, 80 mg/kg/day) was 3/18 and 1/19. For the same compound, the “Mean Survival Time (MST, Days)” value (P. berghei (ANKA); [7]) was >31 days, the “Mice Alive on Day 31” value (P. berghei (ANKA); [7]) was 5/5 and the IC50 [3] was 8 nM. For the same compound, the “P. berghei DNA in blood and tissue samples (qPCR)” value (P. berghei DNA) was “negative”.
